Patent publication US5206241A, “Labdanes and process for their preparation” (Hoechst Aktiengesellschaft, priority 1990, dated 1993)
Values after ≈ are worked out from the molar mass of the structure shown. Structures can show the parent of a compound that is named as a salt.

What was measured:
[1] = system: Guinea pig atrium; assay: Positive inotropic activity, electrically stimulated isolated guinea pig atrium; conditions: contractility of isolated atrium, Ringer's solution, 32° C., recorded 7 to 10 minutes; for EC50: Cavia porcellus
Description: Guinea pigs of both sexes and weighing 400 g are sacrificed, and the heart is removed and placed in Ringer's solution at room temperature. Both the left and the right atria are then isolated, fixed in an organ holder and placed in a bath containing Ringer's solution and maintained at a temperature of 32° C. A mixture of 95% O2 and 5% CO2 is bubbled through the organ bath. Electrical stimulation of the atrium is then carried out. A compound according to the invention is dissolved in water to give a solution of known concentration and is added to the bath. The contractility of the atrium is recorded for 7 to 10 minutes via an […] strain gage on a Nihon Kohden 4-channel pen recorder. The activity is expressed on the basis of the resulting data as the EC50.
Data for compounds disclosed in Indian Patent No. 163 242 are also provided for comparison.

[2] = system: intraocular pressure (IOP) in conscious rabbits; assay: Measurement of the intraocular pressure in conscious rabbits; format: in vivo, rabbit; conditions: 2% solution, 100 μl into one eye; for IOP-Lowering Effect, % decrease in IOP: Schioetz tonometer, relative to initial value; for IOP-Lowering Effect, Duration: unit of duration not given
Description: For this experiment rabbits of both sexes and weighin 2 to 3 kg are used. The intraocular pressure (IOP) is measured with a Schioetz tonometer after corneal anaesthesia with a 2% novocaine solution. A 2% solution of a compound according to the invention is prepared, using the stoichiometric amount of 0.1N HCl, by dissolving it or its salt directly in water. After the initial value has been determined, 100 μl of the solution of the test compound are […] into one of the eyes, and the vehicle is instilled into the other eye. The IOP is measured at defined time intervals, i.e. 0.5, 1, 2, 3, 4 and 5 hours. The percentage decreases in the IOP is calculated using the initial value.

C=C[C@@]1(C)CC(=O)[C@]2(O)[C@@]3(C)[C@@H](O)CCC(C)(C)[C@@H]3[C@H](OC(=O)CCN3CCOCC3)[C@H](OC(=O)COCC)[C@@]2(C)O1 [drawing 34]
EC50 [1]: 0.044 µg/mL (≈ 0.0739 µM)

C=C[C@@]1(C)CC(=O)[C@]2(O)[C@@]3(C)[C@@H](O)CCC(C)(C)[C@@H]3[C@H](OC(=O)CCN3CCN(C)CC3)[C@H](OC(=O)COCC)[C@@]2(C)O1
IOP-Lowering Effect, % decrease in IOP [2]: 32%
IOP-Lowering Effect, Duration [2]: > 360

C=C[C@@]1(C)CC(=O)[C@]2(O)[C@@]3(C)[C@@H](O)CCC(C)(C)[C@@H]3[C@H](OC(=O)COC)[C@H](OC(=O)CCN(C)C)[C@@]2(C)O1 [COCH2 OCH3, CO(CH2)2 NMe2.HCl, 1α,9α-Dihydroxy-7β-(3-N,N-dimethylamino-propionyloxy)-8,13-epoxy-6β-methoxyacetoxy-labd-14-en-11-one]
EC50 [1]: 0.77 µg/mL

C=C[C@@]1(C)CC(=O)[C@]2(O)[C@@]3(C)[C@@H](O)CCC(C)(C)[C@@H]3[C@H](OC(=O)CN3CCCCC3)[C@H](O)[C@@]2(C)O1 [drawing 36, reference compound]
EC50 [1]: 1.8 µg/mL (≈ 3.65 µM)

C=C[C@@]1(C)CC(=O)[C@]2(O)[C@@]3(C)[C@@H](O)CCC(C)(C)[C@@H]3[C@H](OC(=O)CCN3CCOCC3)[C@H](O)[C@@]2(C)O1 [reference compound]
Guinea pig atrium EC50 [1]: Not active

C=C[C@@]1(C)CC(=O)[C@]2(O)[C@@]3(C)[C@@H](O)CCC(C)(C)[C@@H]3[C@H](OC(=O)CCN(C)C)[C@H](OC(=O)COC)[C@@]2(C)O1 [CO(CH2)2 N(CH3)2.2HCl, COCH2 OCH3, 1α,9α-Dihydroxy-6β-(3-N,N-dimethylamino-propionyloxy)-8,13-epoxy-7β-methoxy-acetoxy-labd-14-en-11-one]
EC50 [1]: 0.024 µg/mL

C=C[C@@]1(C)CC(=O)[C@]2(O)[C@@]3(C)[C@@H](O)CCC(C)(C)[C@@H]3[C@H](OC(=O)CN3CCCCC3)[C@H](O)[C@@]2(C)O1 [drawing 41, reference compound]
IOP-Lowering Effect, % decrease in IOP [2]: Not active

C=C[C@@]1(C)CC(=O)[C@]2(O)[C@@]3(C)[C@@H](O)CCC(C)(C)[C@@H]3[C@H](OC(=O)CCN3CCOCC3)[C@H](OC(=O)COCC)[C@@]2(C)O1 [drawing 39]
IOP-Lowering Effect, % decrease in IOP [2]: 31%
IOP-Lowering Effect, Duration [2]: > 360

C=C[C@@]1(C)CC(=O)[C@]2(O)[C@@]3(C)[C@@H](O)CCC(C)(C)[C@@H]3[C@H](OC(=O)CCN3CCCCC3)[C@H](OC(=O)COc3ccccc3)[C@@]2(C)O1
IOP-Lowering Effect, % decrease in IOP [2]: 31%
IOP-Lowering Effect, Duration [2]: 300
